From patent US20020137929A1, “1 - (3-heterocyclylphenyl) isothiourea, -isourea, -guanidine and -amidine herbicidal agents” (Intellectual Property Department, BASF Aktiengesellschaft, priority 1998, published 2002)

Experiments:
CASOB (Sicklepod) = assay: Postemergence herbicidal evaluation; assay type: in vivo, Cassia obtusifolia; settings: postemergence
Outline: (§1)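 ~2-wk seedlings; postemergence spray, 40 psi; vehicle 1:1 acetone:water + 0.5% Tween 20; rate ≈0.0156–0.500 kg/ha; greenhouse hold; scored 4–5 wk after treatment, 0–9 scale vs control; repeat tests averaged.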

[1] = tested on: CHEAL (Lambsquarters, Common); assay: Postemergence herbicidal evaluation; assay type: in vivo, Chenopodium album; settings: postemergence
Outline: as §1

ECHCG (Barnyardgrass) = assay: Postemergence herbicidal evaluation; assay type: in vivo, Echinochloa crus-galli; settings: postemergence
Outline: as §1

ORYSAT (Rice, Tebonnet) [2] = assay: Postemergence herbicidal evaluation; assay type: in vivo, Oryza sativa, (L.) Tebonnet; settings: postemergence
Outline: as §1

GALAP (Galium) = assay: Preemergence herbicidal evaluation; assay type: in vivo, Galium aparine; settings: preemergence, rated 4-5 weeks after treatment, 0-9 scale
Outline: (§2)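 Rating at 4–5 wk post-spray on a 0–9 visual scale vs control. Application: aqueous acetone, ~0.0156–0.500 kg/ha, to soil surface after seeding, preemergence.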

SETVI (Foxtail, Green) = assay: Preemergence herbicidal evaluation; assay type: in vivo, Setaria viridis; settings: preemergence, rated 4-5 weeks after treatment, 0-9 scale
Outline: as §2

[3] = tested on: GLXMAW (Soybean, Williams); assay: Preemergence herbicidal evaluation; assay type: in vivo, Glycine max, (L.) Merr. cv Williams; settings: preemergence, rated 4-5 weeks after treatment, 0-9 scale
Outline: as §2

ORYSAT (Rice, Tebonnet) [4] = assay: Preemergence herbicidal evaluation; assay type: in vivo, Oryza sativa, (L.) Tebonnet; settings: preemergence, rated 4-5 weeks after treatment, 0-9 scale
Outline: as §2

[5] = tested on: TRZAWR (Wheat, Winter, cv Riband); assay: Preemergence herbicidal evaluation; assay type: in vivo, Triticum aestivum; settings: preemergence, rated 4-5 weeks after treatment, 0-9 scale
Outline: as §2

ZEAMX (Corn, Field) = assay: Preemergence herbicidal evaluation; assay type: in vivo, Zea mays; settings: preemergence, rated 4-5 weeks after treatment, 0-9 scale
Outline: as §2

CYPIR (Rice Flatsedge) = assay: Preemergence weed control under flooded paddy conditions; assay type: in vivo, Cyperus iria; settings: rated 3-4 weeks after treatment
Outline: (§3)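 Seeds or propagules sown in top 0.5 cm of silt loam soil, flooded 1.5 to 3 cm above surface throughout. Compound in 50/50 v/v aqueous/acetone pipetted into flood water at about 0.0313 to 0.500 kg/ha. Visual 0-9 rating versus control after three to four weeks in greenhouse.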

MOOVA (Monochoria) = assay: as above; assay type: in vivo, Monochoria vaginalis; settings: rated 3-4 weeks after treatment
Outline: as §3

[6] = tested on: SAGPY (Arrowhead (Pygmaea)); assay: as above; assay type: in vivo, Sagittaria pygmaea; settings: rated 3-4 weeks after treatment
Outline: as §3

CYPSE (Flatsedge) = assay: Postemergence weed control under flooded paddy conditions; assay type: in vivo, Cyperus serotinus; settings: postemergence weeds, rated 3 to 4 weeks after treatment
Outline: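 Weeds 3 to 5 cm tall and rice seedlings at the 1.5 to 2.5 leaf stage were flooded, with water held 1.5 to 3 cm above the soil. Compounds in 50/50 v/v aqueous/acetone went into the flood water at about 0.0313 to 0.500 kg/ha. Visual 0-9 ratings versus control were made 3 to 4 weeks later.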

In the case of `C=CCN1C(=O)C(CC(N)=O)SC1=Nc1cc(-n2c(=O)cc(C(F)(F)F)n(C)c2=O)c(F)cc1Cl` (stereo not drawn) [Compound 99, 3-Allyl-2-{{2-chloro-5-[3,6-dihydro-3-methyl-2,6-dioxo-4-(trifluoromethyl)-1(2H)-pyrimidinyl]-4-fluorophenyl}imino}-4-oxo-5-thiazolidineacetamide], the “herbicidal rating CASOB” value (CASOB (Sicklepod); rate 0.0156 kg/ha) is reported as 4.0, the “herbicidal rating CASOB” value (CASOB (Sicklepod); rate 0.0313 kg/ha) is reported as 7.0 and the CASOB herbicidal rating (CASOB (Sicklepod); rate 0.0625 kg/ha) is reported as 8.0. For the same molecule, the CASOB herbicidal rating (CASOB (Sicklepod); rate 0.1250 kg/ha) was 9.0, the “herbicidal rating CHEAL” value ([1]; rate 0.0156 kg/ha) was 7.0 and the “herbicidal rating CHEAL” value ([1]; rate 0.0313 kg/ha) was 7.0. The CHEAL herbicidal rating ([1]; rate 0.0625 kg/ha) was 9.0, the CHEAL herbicidal rating ([1]; rate 0.1250 kg/ha) was 9.0 and the “herbicidal rating ECHCG” value (ECHCG (Barnyardgrass); rate 0.0156 kg/ha) was 4.0. For the same molecule, the “herbicidal rating ECHCG” value (ECHCG (Barnyardgrass); rate 0.0313 kg/ha) was 4.0, the ECHCG herbicidal rating (ECHCG (Barnyardgrass); rate 0.0625 kg/ha) was 7.0 and the ECHCG herbicidal rating (ECHCG (Barnyardgrass); rate 0.1250 kg/ha) was 6.0. The “herbicidal rating ORYSAT” value (ORYSAT (Rice, Tebonnet) [2]; rate 0.0156 kg/ha) was 4.0, the “herbicidal rating ORYSAT” value (ORYSAT (Rice, Tebonnet) [2]; rate 0.0313 kg/ha) was 4.5 and the ORYSAT herbicidal rating (ORYSAT (Rice, Tebonnet) [2]; rate 0.0625 kg/ha) was 5.5. It also gave an ORYSAT herbicidal rating (ORYSAT (Rice, Tebonnet) [2]; rate 0.1250 kg/ha) of 6.5, a GALAP rating (GALAP (Galium); 0.0156 kg/ha) of 0.0 and a GALAP rating (GALAP (Galium); 0.0313 kg/ha) of 0.0. It also gave a GALAP rating (GALAP (Galium); 0.0625 kg/ha) of 1.0, a GALAP rating (GALAP (Galium); 0.1250 kg/ha) of 7.0 and a GALAP rating (GALAP (Galium); 0.2500 kg/ha) of 9.0. For the same molecule, the GALAP rating (GALAP (Galium); 0.5000 kg/ha) was 7.0, the SETVI rating (SETVI (Foxtail, Green); 0.0156 kg/ha) was 0.0 and the SETVI rating (SETVI (Foxtail, Green); 0.0313 kg/ha) was 1.0. The SETVI rating (SETVI (Foxtail, Green); 0.0625 kg/ha) was 1.0, the SETVI rating (SETVI (Foxtail, Green); 0.1250 kg/ha) was 6.0 and the SETVI rating (SETVI (Foxtail, Green); 0.2500 kg/ha) was 7.0. It also gave an SETVI rating (SETVI (Foxtail, Green); 0.5000 kg/ha) of 9.0, a GLXMAW rating ([3]; 0.0156 kg/ha) of 0.0 and a GLXMAW rating ([3]; 0.0313 kg/ha) of 0.0. For the same molecule, the GLXMAW rating ([3]; 0.0625 kg/ha) was 3.0, the GLXMAW rating ([3]; 0.1250 kg/ha) was 4.0 and the GLXMAW rating ([3]; 0.2500 kg/ha) was 7.0. For the same molecule, the GLXMAW rating ([3]; 0.5000 kg/ha) was 7.0, the ORYSAT rating (ORYSAT (Rice, Tebonnet) [4]; 0.0156 kg/ha) was 0.0 and the ORYSAT rating (ORYSAT (Rice, Tebonnet) [4]; 0.0313 kg/ha) was 0.0. For the same molecule, the ORYSAT rating (ORYSAT (Rice, Tebonnet) [4]; 0.0625 kg/ha) was 1.0, the ORYSAT rating (ORYSAT (Rice, Tebonnet) [4]; 0.1250 kg/ha) was 1.0 and the ORYSAT rating (ORYSAT (Rice, Tebonnet) [4]; 0.2500 kg/ha) was 4.0. The ORYSAT rating (ORYSAT (Rice, Tebonnet) [4]; 0.5000 kg/ha) was 4.0, the TRZAWR rating ([5]; 0.0156 kg/ha) was 0.0 and the TRZAWR rating ([5]; 0.0313 kg/ha) was 0.0. The TRZAWR rating ([5]; 0.0625 kg/ha) was 1.0, the TRZAWR rating ([5]; 0.1250 kg/ha) was 1.0 and the TRZAWR rating ([5]; 0.2500 kg/ha) was 4.0. The TRZAWR rating ([5]; 0.5000 kg/ha) was 5.0, the ZEAMX rating (ZEAMX (Corn, Field); 0.0156 kg/ha) was 0.0 and the ZEAMX rating (ZEAMX (Corn, Field); 0.0313 kg/ha) was 0.0. It also gave a ZEAMX rating (ZEAMX (Corn, Field); 0.0625 kg/ha) of 1.0, a ZEAMX rating (ZEAMX (Corn, Field); 0.1250 kg/ha) of 2.0 and a ZEAMX rating (ZEAMX (Corn, Field); 0.2500 kg/ha) of 6.0. The ZEAMX rating (ZEAMX (Corn, Field); 0.5000 kg/ha) was 7.0, the “CYPIR herbicidal effect rating” value (CYPIR (Rice Flatsedge); 0.0313 kg/ha) was 0.0 and the “CYPIR herbicidal effect rating” value (CYPIR (Rice Flatsedge); 0.0625 kg/ha) was 0.0. The “CYPIR herbicidal effect rating” value (CYPIR (Rice Flatsedge); 0.1250 kg/ha) was 0.0, the “CYPIR herbicidal effect rating” value (CYPIR (Rice Flatsedge); 0.2500 kg/ha) was 0.0 and the “CYPIR herbicidal effect rating” value (CYPIR (Rice Flatsedge); 0.5000 kg/ha) was 0.0. For the same molecule, the “MOOVA herbicidal effect rating” value (MOOVA (Monochoria); 0.0313 kg/ha) was 9.0, the “MOOVA herbicidal effect rating” value (MOOVA (Monochoria); 0.0625 kg/ha) was 9.0 and the “MOOVA herbicidal effect rating” value (MOOVA (Monochoria); 0.1250 kg/ha) was 9.0. The “MOOVA herbicidal effect rating” value (MOOVA (Monochoria); 0.2500 kg/ha) was 9.0, the “MOOVA herbicidal effect rating” value (MOOVA (Monochoria); 0.5000 kg/ha) was 9.0 and the “SAGPY herbicidal effect rating” value ([6]; 0.0313 kg/ha) was 0.0. For the same molecule, the “SAGPY herbicidal effect rating” value ([6]; 0.0625 kg/ha) was 0.0, the “SAGPY herbicidal effect rating” value ([6]; 0.1250 kg/ha) was 3.0 and the “SAGPY herbicidal effect rating” value ([6]; 0.2500 kg/ha) was 4.0. The “SAGPY herbicidal effect rating” value ([6]; 0.5000 kg/ha) was 4.0, the “Herbicidal rating CYPSE” value (CYPSE (Flatsedge); Rate 0.0313 kg/ha) was 0.0 and the “Herbicidal rating CYPSE” value (CYPSE (Flatsedge); Rate 0.0625 kg/ha) was 0.0. The “Herbicidal rating CYPSE” value (CYPSE (Flatsedge); Rate 0.1250 kg/ha) was 0.0, the “Herbicidal rating CYPSE” value (CYPSE (Flatsedge); Rate 0.2500 kg/ha) was 0.0 and the “Herbicidal rating CYPSE” value (CYPSE (Flatsedge); Rate 0.5000 kg/ha) was 0.0.
